26 compounds from patent US20250346592A1 (Celgene Corporation, priority 2022, published 2025) can be followed below.

The assay deals with hPAD4 enzyme (Homo sapiens (Human), UniProt Q9UM07). Briefly: RFMS2 assay (RapidFire mass spectrometry, TSTGGRQGSHH peptide substrate). It counts as biochemical. The settings on record: 35 nM recombinant human PAD4, 500 μM TSTGGRQGSHH peptide, 30 minutes at room temperature; read-out: RFMS 2 IC50. As to the method: Stock compounds were dissolved and stored in 100% DMSO. Compound solutions were prepared via serial dilution at 3-fold intervals in DMSO with top compound concentration at 20 μM in each assay. 0.25 μl of compound solution was transferred from the compound plate to the assay plate by using an acoustic dispenser.
Chain of hPAD4 enzyme (Q9UM07 whole entry): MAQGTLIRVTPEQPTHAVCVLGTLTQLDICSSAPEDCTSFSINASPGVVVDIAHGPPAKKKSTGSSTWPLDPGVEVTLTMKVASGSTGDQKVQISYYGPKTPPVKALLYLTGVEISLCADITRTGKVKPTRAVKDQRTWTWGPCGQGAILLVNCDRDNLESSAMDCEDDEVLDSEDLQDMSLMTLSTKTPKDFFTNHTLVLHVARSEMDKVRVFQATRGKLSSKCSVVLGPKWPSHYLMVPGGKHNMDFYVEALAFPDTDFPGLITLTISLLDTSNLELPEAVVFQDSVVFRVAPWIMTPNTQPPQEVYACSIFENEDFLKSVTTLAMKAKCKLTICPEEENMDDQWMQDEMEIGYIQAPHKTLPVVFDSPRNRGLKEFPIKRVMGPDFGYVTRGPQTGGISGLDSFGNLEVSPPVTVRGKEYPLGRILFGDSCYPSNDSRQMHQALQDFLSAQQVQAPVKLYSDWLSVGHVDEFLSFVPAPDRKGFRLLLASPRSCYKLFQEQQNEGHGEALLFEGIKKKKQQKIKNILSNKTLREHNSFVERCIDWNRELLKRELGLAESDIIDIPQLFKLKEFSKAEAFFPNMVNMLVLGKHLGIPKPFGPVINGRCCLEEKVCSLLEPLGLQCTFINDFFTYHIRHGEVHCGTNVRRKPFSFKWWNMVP
• Total reaction volume: 25 μl • Assay buffer: […] pH 7.4, 200 mM NaCl, 2 mM CaCl2, 5 mM DTT • 35 nM recombinant human PAD4 • 500 μM TSTGGRQGSHH peptide • 1.2% DMSO • Stop solution: 10% formic acid
Reaction mixtures were incubated at room temperature for 30 minutes. 10 μl each of the reaction mixtures was then mixed with 40 μl of 10% formic acid in a microtiter plate. The plate was frozen at −80° C. before shipping out on dry ice for RapidFire mass spectroscopy analysis.
Thawed samples were loaded onto the Rapid Fire 300 system (Agilent) wherein they were first sipped for 250 ms and then loaded onto a Agilent “C” (C18) cartridge using a mobile phase of water containing 0.09% formic acid/0.01% trifluoroacetic acid for 3000 ms desalting flowing at a rate of 1.5 ml/min. Once the samples were loaded and washed, a mobile phase of acetonitrile containing 0.09% formic acid/0.01% trifluoroacetic acid was used to elute the samples directly onto a Sciex API4000 triple quadrupole mass spectrometer for 3000 ms at a flow rate of 1.25 ml/min.
MRM transitions for substrate and product were monitored in positive ESI mode at m/z=562.3/969.7 and m/z=562.8/541.3 respectively. The dwell time for each transition was set at 100 ms, and the ESI voltage was used at 5500 with a source temperature of 650° C. Extracted ion peaks for each transition were integrated using the Rapid Fire Integrator software.
Compounds having an activity designated as “A” provided an IC50≤10 nM; compounds having an activity designated as “B” provided an IC50 11-100 nM; compounds having an activity designated as “C” provided an IC50 101-500 nM; compounds having an activity designated as “D” provided an IC50 501-1000 nM; compounds having an activity designated as “E” provided an IC50>1000 nM.

For orientation: IC50 means the concentration that gives 50% inhibition.

Structures are written as SMILES.

Regarding `CNC(=O)c1ccc2cc(-c3nc4cc5c(cc4n3C)CCN(C[C@H](N)CF)C5=O)n(CC3CC3)c2n1` [Example 63, (S)-2-(6-(2-amino-3-fluoropropyl)-1-methyl-5-oxo-5,6,7,8-tetrahydro-1H-imidazo[4,5-g]isoquinolin-2-yl)-1-(cyclopropylmethyl)-N-methyl-1H-pyrrolo[2,3-b]pyridine-6-carboxamide], the IC50 was 501 to 1000 nM.

For the compound `CN(C)C(=O)c1ccc2cc(-c3nc4cc5c(cc4n3C)CCN(C[C@H](N)CF)C5=O)n(CC3CC3)c2n1` [Example 64, (S)-2-(6-(2-amino-3-fluoropropyl)-1-methyl-5-oxo-5,6,7,8-tetrahydro-1H-imidazo[4,5-g]isoquinolin-2-yl)-1-(cyclopropylmethyl)-N,N-dimethyl-1H-pyrrolo[2,3-b]pyridine-6-carboxamide], the IC50 was in the range of 501 to 1000 nM.

Consider `COc1c(F)ccc2cc(-c3nc4cc5c(cc4n3C)CCN(C[C@H](N)CF)C5=O)n(CC3CC3)c12` [Example 66, (S)-6-(2-amino-3-fluoropropyl)-2-(1-(cyclopropylmethyl)-6-fluoro-7-methoxy-1H-indol-2-yl)-1-methyl-1,6,7,8-tetrahydro-5H-imidazo[4,5-g]isoquinolin-5-one], for which the IC50 fell in the range of 101 to 500 nM.

With `Cn1c(-c2cc3ccc(C(=O)O)cc3n2CC2CC2)nc2cc3c(cc21)CCN(C[C@H](N)CF)C3=O` [Example 67, (S)-2-(6-(2-amino-3-fluoropropyl)-1-methyl-5-oxo-5,6,7,8-tetrahydro-1H-imidazo[4,5-g]isoquinolin-2-yl)-1-(cyclopropylmethyl)-1H-indole-6-carboxylic acid], the IC50 is greater than 1000 nM.

As for `CN(C)c1cccc2cc(-c3nc4cc5c(cc4n3C)CCN(C[C@H](N)CF)C5=O)n(CC3CC3)c12` [Example 69, (S)-6-(2-amino-3-fluoropropyl)-2-(1-(cyclopropylmethyl)-7-(dimethylamino)-1H-indol-2-yl)-1-methyl-1,6,7,8-tetrahydro-5H-imidazo[4,5-g]isoquinolin-5-one], the IC50 was greater than 1000 nM.

As for `Cn1c(-c2cc3cccc(N4CCOCC4)c3n2CC2CC2)nc2cc3c(cc21)CCN(C[C@H](N)CF)C3=O` [Example 70], the IC50 is greater than 1000 nM.

For `C[C@@H](N)CN1CCc2cc3c(cc2C1=O)nc(-c1cc2ccccc2n1CC1CCC1)n3C` [Example 71, (R)-6-(2-aminopropyl)-2-(1-(cyclobutylmethyl)-1H-indol-2-yl)-1-methyl-1,6,7,8-tetrahydro-5H-imidazo[4,5-g]isoquinolin-5-one], the half-inhibitory concentration (IC50) fell in the range of 101 to 500 nM.

In the case of `C[C@@H](N)CN1CCc2cc3c(cc2C1=O)nc(-c1cc2ccccc2n1CC1CCCC1)n3C` [Example 72, (R)-6-(2-aminopropyl)-2-(1-(cyclopentylmethyl)-1H-indol-2-yl)-1-methyl-1,6,7,8-tetrahydro-5H-imidazo[4,5-g]isoquinolin-5-one], the IC50 fell in the range of 101 to 500 nM.

For `C[C@@H](N)CN1CCc2cc3c(cc2C1=O)nc(-c1cc2ccccc2n1CC12CC(C1)C2)n3C` [Example 73, (R)-6-(2-aminopropyl)-2-(1-(bicyclo[1.1.1]pentan-1-ylmethyl)-1H-indol-2-yl)-1-methyl-1,6,7,8-tetrahydro-5H-imidazo[4,5-g]isoquinolin-5-one], the IC50 was greater than 1000 nM.

Consider `CC(C)Cn1c(-c2nc3cc4c(cc3n2C)CCN(C[C@@H](C)N)C4=O)cc2ccccc21` [Example 74, (R)-6-(2-aminopropyl)-2-(1-isobutyl-1H-indol-2-yl)-1-methyl-1,6,7,8-tetrahydro-5H-imidazo[4,5-g]isoquinolin-5-one], for which the IC50 is 501 to 1000 nM.

On to `COC1CC(Cn2c(-c3nc4cc5c(cc4n3C)CCN(C[C@@H](C)N)C5=O)cc3ccccc32)C1` (stereo partly drawn) [Example 75, (R)-6-(2-aminopropyl)-2-(1-((3-methoxycyclobutyl)methyl)-1H-indol-2-yl)-1-methyl-1,6,7,8-tetrahydro-5H-imidazo[4,5-g]isoquinolin-5-one], for which the IC50 lay in the range of 501 to 1000 nM.

`COCCn1c(-c2nc3cc4c(cc3n2C)CCN(C[C@@H](C)N)C4=O)cc2ccccc21` [Example 76, (R)-6-(2-aminopropyl)-2-(1-(2-methoxyethyl)-1H-indol-2-yl)-1-methyl-1,6,7,8-tetrahydro-5H-imidazo[4,5-g]isoquinolin-5-one]: the IC50 was greater than 1000 nM.

With `C[C@@H](N)CN1CCc2cc3c(cc2C1=O)nc(-c1cc2ccccc2n1CCC1CC1)n3C` [Example 77, (R)-6-(2-aminopropyl)-2-(1-(2-cyclopropylethyl)-1H-indol-2-yl)-1-methyl-1,6,7,8-tetrahydro-5H-imidazo[4,5-g]isoquinolin-5-one], the IC50 lay in the range of 101 to 500 nM.

With `C[C@@H](N)CN1CCc2cc3c(cc2C1=O)nc(-c1cc2ccccc2n1Cc1ccccc1)n3C` [Example 78, (R)-6-(2-aminopropyl)-2-(1-benzyl-1H-indol-2-yl)-1-methyl-1,6,7,8-tetrahydro-5H-imidazo[4,5-g]isoquinolin-5-one], the IC50 was 101 to 500 nM.

`CCn1c(-c2nc3cc4c(cc3n2C)CCN(C[C@@H](C)N)C4=O)cc2cccnc21` [Example 79, (R)-6-(2-aminopropyl)-2-(1-ethyl-1H-pyrrolo[2,3-b]pyridin-2-yl)-1-methyl-1,6,7,8-tetrahydro-5H-imidazo[4,5-g]isoquinolin-5-one]: the IC50 is greater than 1000 nM.

With `C[C@@H](N)CN1CCc2cc3c(cc2C1=O)nc(-c1cc2ccccc2n1Cc1cccnc1)n3C` [Example 80, (R)-6-(2-aminopropyl)-1-methyl-2-(1-(pyridin-3-ylmethyl)-1H-indol-2-yl)-1,6,7,8-tetrahydro-5H-imidazo[4,5-g]isoquinolin-5-one], the IC50 was in the range of 101 to 500 nM.

Consider `C[C@@H](N)CN1CCc2cc3c(cc2C1=O)nc(-c1cc2ccccc2n1Cc1ccncc1)n3C` [Example 81, (R)-6-(2-aminopropyl)-1-methyl-2-(1-(pyridin-4-ylmethyl)-1H-indol-2-yl)-1,6,7,8-tetrahydro-5H-imidazo[4,5-g]isoquinolin-5-one], for which the IC50 was greater than 1000 nM.

As to `C=CCn1c(-c2nc3cc4c(cc3n2C)CCN(C[C@@H](C)N)C4=O)cc2ccccc21` [Example 82, (R)-2-(1-allyl-1H-indol-2-yl)-6-(2-aminopropyl)-1-methyl-1,6,7,8-tetrahydro-5H-imidazo[4,5-g]isoquinolin-5-one], the IC50 was 501 to 1000 nM.

As for `Cc1ccc2cc(-c3nc4cc5c(cc4n3C)CCN(C[C@@H](C)N)C5=O)n(CC3CCC3)c2c1` [Example 83], the IC50 was in the range of 101 to 500 nM.

Turning to `C[C@@H](N)CN1CCc2cc3c(cc2C1=O)nc(-c1cc2ccccc2n1Cc1ccccn1)n3C` [Example 84, (R)-6-(2-aminopropyl)-1-methyl-2-(1-(pyridin-2-ylmethyl)-1H-indol-2-yl)-1,6,7,8-tetrahydro-5H-imidazo[4,5-g]isoquinolin-5-one], the IC50 lay within 101 to 500 nM.

Turning to `C[C@@H](O)CN1CCc2cc3c(cc2C1=O)nc(-c1cc2ccccc2n1CC1CC1)n3C` [Example 85, (R)-2-(1-(cyclopropylmethyl)-1H-indol-2-yl)-6-(2-hydroxypropyl)-1-methyl-1,6,7,8-tetrahydro-5H-imidazo[4,5-g]isoquinolin-5-one], the IC50 is greater than 1000 nM.

For the compound `COCCn1c(-c2nc3cc4c(cc3n2C)CCN(C[C@@H](C)N)C4=O)cc2cccc(C)c21` [Example 87, (R)-6-(2-aminopropyl)-2-(1-(2-methoxyethyl)-7-methyl-1H-indol-2-yl)-1-methyl-1,6,7,8-tetrahydro-5H-imidazo[4,5-g]isoquinolin-5-one], the IC50 was in the range of 501 to 1000 nM.

On to `COCCn1c(-c2nc3cc4c(cc3n2C)CCN(C[C@@H](C)N)C4=O)cc2cccc(OC)c21` [Example 88, (R)-6-(2-aminopropyl)-2-(7-methoxy-1-(2-methoxyethyl)-1H-indol-2-yl)-1-methyl-1,6,7,8-tetrahydro-5H-imidazo[4,5-g]isoquinolin-5-one], for which the IC50 lay in the range of 101 to 500 nM.

For `Cc1cccc2cc(-c3nc4cc5c(cc4n3C)CCN(C[C@@H](C)N)C5=O)n(CC3CCC3)c12` [Example 89, (R)-6-(2-aminopropyl)-2-(1-(cyclobutylmethyl)-7-methyl-1H-indol-2-yl)-1-methyl-1,6,7,8-tetrahydro-5H-imidazo[4,5-g]isoquinolin-5-one], the IC50 lay in the range of 101 to 500 nM.

Consider `CCn1c(-c2nc3cc4c(cc3n2C)CCN(C[C@@H](C)N)C4=O)cc2cccc(OC)c21` [Example 90, (R)-6-(2-aminopropyl)-2-(1-ethyl-7-methoxy-1H-indol-2-yl)-1-methyl-1,6,7,8-tetrahydro-5H-imidazo[4,5-g]isoquinolin-5-one], for which the IC50 fell in the range of 101 to 500 nM.

On to `COc1cccc2cc(-c3nc4cc5c(cc4n3C)CCN(C[C@@H](C)N)C5=O)n(CCOC3CC3)c12` [Example 91], for which the half-maximal inhibitory concentration (IC50) was 101 to 500 nM.
